Test results from ChEMBL document CHEMBL3124755, “Synthesis and tumor inhibitory activity of novel coumarin analogs targeting angiogenesis and apoptosis” (Eur J Med Chem, 2014).
The source made the active and inactive calls. No cut-off for these calls is given here.

Tests used:
[1] = (§1) Cytotoxicity against mouse DLA cells after 48 hrs by LDH release assay; type: functional, cell-based
[2] = Cytotoxicity against mouse EAC cells after 48 hrs by MTT assay; type: functional, cell-based; conditions: Ehrlich
[3] = (§2) Cytotoxicity against mouse EAC cells after 48 hrs by LDH release assay; type: functional, cell-based; conditions: Ehrlich
[4] = Cytotoxicity against mouse EAC cells after 48 hrs by trypan blue exclusion assay; type: functional, cell-based; conditions: Ehrlich
[5] = Cytotoxicity against mouse DLA cells after 48 hrs by trypan blue exclusion assay; type: functional, cell-based
[6] = Cytotoxicity against mouse DLA cells after 48 hrs by MTT assay; type: functional, cell-based
[7] = system: Chorioallantoic membrane; assay: Ex vivo antiangiogenic activity in 2 days fertilized chicken embryo chorioallantoic membrane model assessed as inhibition of rVEGF165-induced angiogenesis at 10 uM after 72 hrs by photographic analysis relative to control; type: functional, tissue-based; conditions: Gallus gallus
[8] = system: Chorioallantoic membrane; assay: In vivo antiangiogenic activity in 12 days fertilized chicken embryo chorioallantoic membrane model assessed as inhibition of rVEGF165-induced angiogenesis at 10 uM by photographic analysis relative to control; type: functional, organism-based; conditions: Gallus gallus
[9] = Antitumor activity against mouse EAC cells allografted in Swiss albino mouse assessed as increase in life span at 75 mg/kg, ip 3 doses administered every alternate days after three days of tumor growth (reference value: 10 days); type: functional, Ehrlich; conditions: route intraperitoneal
[10] = system: Ehrlich; assay: Antitumor activity against mouse EAC cells allografted in Swiss albino mouse assessed as DNA fragmentation in tumor cells at 75 mg/kg, ip 3 doses administered every alternate days after three days of tumor growth; type: functional, organism-based; design: dose 75 mg/kg
[11] = system: DLA; assay: as §1; type: functional, cell-based
[12] = system: Ehrlich; assay: Antitumor activity against mouse EAC cells allografted in Swiss albino mouse assessed as condensed nucleus in tumor cells at 75 mg/kg, ip 3 doses administered every alternate days after three days of tumor growth; type: functional, organism-based; design: dose 75 mg/kg
[13] = system: Mus musculus; assay: Toxicity in Swiss albino mouse assessed as change in spleen morphology at 75 mg/kg, ip administered for 10 days relative to untreated control; type: organism-based; design: dose 75 mg/kg, route intraperitoneal; conditions: in vivo, 240 h
[14] = system: Ehrlich; assay: Antitumor activity against mouse EAC cells allografted in Swiss albino mouse assessed as decrease in ascites fluid secretion at 75 mg/kg, ip 3 doses administered every alternate days after three days of tumor growth; type: functional, organism-based; design: dose 75 mg/kg
[15] = system: Ehrlich; assay: Antitumor activity against mouse EAC cells allografted in Swiss albino mouse assessed as tumor cell shrinkage at 75 mg/kg, ip 3 doses administered every alternate days after three days of tumor growth; type: functional, organism-based; design: dose 75 mg/kg
[16] = system: Ehrlich; assay: as §2; type: functional, cell-based
[17] = system: DLA; assay: Antitumor activity against mouse DLA cells allografted in Swiss albino mouse assessed as tumor regression at 75 mg/kg, ip administered alternate days total of 10 doses measured on day 35 relative to untreated control; type: functional, organism-based; design: dose 75 mg/kg
[18] = system: Mus musculus; assay: Antiangiogenic activity in mouse EAC cells allografted Swiss albino mouse model assessed as decrease in peritoneal angiogenesis at 75 mg/kg, ip 3 doses administered every alternate days after three days of tumor growth; type: functional, organism-based; design: dose 75 mg/kg; conditions: Ehrlich
[19] = system: DLA; assay: Antitumor activity against mouse DLA cells allografted in Swiss albino mouse assessed as inhibition of tumor growth measuring tumor volume at 75 mg/kg, ip administered alternate days total of 10 doses relative to untreated control; type: functional, organism-based; design: dose 75 mg/kg
[20] = Antitumor activity against mouse DLA cells allografted in Swiss albino mouse assessed as increase in lifespan at 75 mg/kg, ip administered alternate days total of 10 doses relative to untreated control; type: functional; conditions: route intraperitoneal
[21] = system: Ehrlich; assay: Antitumor activity against ip dosed mouse EAC cells allografted in Swiss albino mouse assessed as decrease in body weight administered 3 doses every alternate days after three days of tumor growth; type: functional, organism-based
[22] = system: Ehrlich; assay: Antitumor activity against mouse EAC cells allografted in Swiss albino mouse assessed as membrane blebbing of tumor cells at 75 mg/kg, ip 3 doses administered every alternate days after three days of tumor growth by Giemsa staining; type: functional, organism-based; design: dose 75 mg/kg
[23] = system: Mus musculus; assay: Toxicity in Swiss albino mouse assessed as creatinine level at 75 mg/kg, ip administered for 10 days (reference value: 0.59 +/- 1.05 mg/dl); type: organism-based; design: dose 75 mg/kg, route intraperitoneal; conditions: in vivo, 240 h
[24] = system: Mus musculus; assay: Toxicity in Swiss albino mouse assessed as alkaline phosphatase level at 75 mg/kg, ip administered for 10 days (reference value: 128.55 +/- 2.55 IU/L); type: organism-based; design: dose 75 mg/kg, route intraperitoneal; conditions: in vivo, 240 h
[25] = Antitumor activity against mouse EAC cells allografted in Swiss albino mouse model assessed as increase in body weight at 75 mg/kg, ip 3 doses administered every alternate days after three days of tumor growth measured after 10 days; type: functional, Ehrlich; conditions: route intraperitoneal
[26] = system: Ehrlich; assay: Antitumor activity against mouse EAC cells allografted in Swiss albino mouse assessed as irregular tumor cell shape at 75 mg/kg, ip 3 doses administered every alternate days after three days of tumor growth by Giemsa staining; type: functional, organism-based; design: dose 75 mg/kg
[27] = system: Mus musculus; assay: Antiangiogenic activity in mouse EAC cells allografted Swiss albino mouse model assessed as decrease in microvessel density in peritoneum at 75 mg/kg, ip 3 doses administered every alternate days after three days of tumor growth by hematoxylin and eosin staining method; type: functional, organism-based; design: dose 75 mg/kg; conditions: Ehrlich
[28] = system: Mus musculus; assay: Toxicity in Swiss albino mouse assessed as change in liver morphology at 75 mg/kg, ip administered for 10 days relative to untreated control; type: organism-based; design: dose 75 mg/kg, route intraperitoneal; conditions: in vivo, 240 h
[29] = system: Mus musculus; assay: Toxicity in Swiss albino mouse assessed as urea level at 75 mg/kg, ip administered for 10 days (reference value: 42 +/- 2.78 mg/dl); type: organism-based; design: dose 75 mg/kg, route intraperitoneal; conditions: in vivo, 240 h
[30] = system: Ehrlich; assay: Antitumor activity against mouse EAC cells allografted in Swiss albino mouse assessed as inhibition of tumor growth at 75 mg/kg, ip 3 doses administered every alternate days after three days of tumor growth; type: functional, organism-based; design: dose 75 mg/kg
[31] = system: Ehrlich; assay: Antitumor activity against mouse EAC cells allografted in Swiss albino mouse assessed as formation of apoptotic bodies in tumor cells at 75 mg/kg, ip 3 doses administered every alternate days after three days of tumor growth by Giemsa staining; type: functional, organism-based; design: dose 75 mg/kg

SMILES: Cc1ccc(OCC(=O)NNC(=O)c2cc3ccccc3oc2=O)c(C(=O)c2ccc(F)cc2)c1
- IC50 [1]: 45.7 µM
- IC50 [2]: 39.7 µM
- IC50 [3]: 40.8 µM
- IC50 [4]: 43.4 µM
- IC50 [5]: 46.1 µM
- IC50 [6]: 43.4 µM

SMILES: Cc1ccc(OCC(=O)NNC(=O)c2cc3ccccc3oc2=O)c(C(=O)c2ccccc2Cl)c1
- IC50 [1]: 54.4 µM
- IC50 [2]: 45.2 µM
- IC50 [3]: 47.6 µM
- IC50 [4]: 48.4 µM
- IC50 [5]: 54.8 µM
- IC50 [6]: 53.8 µM

SMILES: O=c1[nH]cc(F)c(=O)[nH]1 [FLUOROURACIL]
- IC50 [1]: 15.8 µM
- IC50 [2]: 14.3 µM
- IC50 [3]: 16.3 µM
- IC50 [4]: 16.4 µM
- IC50 [5]: 14.3 µM
- IC50 [6]: 15.7 µM

SMILES: Cc1ccc(OCC(=O)NNC(=O)c2cc3ccccc3oc2=O)c(C(=O)c2ccc(Cl)cc2)c1
- IC50 [1]: 60.4 µM
- IC50 [2]: 56.6 µM
- IC50 [3]: 58 µM
- IC50 [4]: 57.8 µM
- IC50 [5]: 61.6 µM
- IC50 [6]: 59.1 µM

SMILES: Cc1ccc(OCC(=O)NNC(=O)c2cc3ccccc3oc2=O)c(C(=O)c2cccc(Br)c2)c1
- IC50 [1]: 69.8 µM
- IC50 [2]: 66.4 µM
- IC50 [3]: 68.1 µM
- IC50 [4]: 68.5 µM
- IC50 [5]: 71.9 µM
- IC50 [6]: 68.5 µM

SMILES: Cc1ccc(OCC(=O)NNC(=O)c2cc3ccccc3oc2=O)c(C(=O)c2ccc(Br)cc2)c1
- IC50 [1]: 95.3 µM
- IC50 [2]: 87.3 µM
- IC50 [3]: 89 µM
- IC50 [4]: 91.1 µM
- IC50 [5]: 95.5 µM
- IC50 [6]: 92.2 µM

SMILES: Cc1ccc(OCC(=O)NNC(=O)c2cc3ccccc3oc2=O)c(C(=O)c2cccc(Cl)c2)c1
- IC50 [1]: 67.4 µM
- IC50 [2]: 64.9 µM
- IC50 [3]: 65.4 µM
- IC50 [4]: 67.3 µM
- IC50 [5]: 68.6 µM
- IC50 [6]: 65.5 µM

SMILES: Cc1ccc(OCC(=O)NNC(=O)c2cc3ccccc3oc2=O)c(C(=O)c2ccccc2Br)c1
- inhibition [7]: Active
- inhibition [8]: Active
- Time [9]: 23 days
- Activity [10]: Active
- Activity [11]: Dose-dependent effect
- IC50 [1]: 10.6 µM
- Activity [12]: Active
- Activity [13]: Non-toxic
- Activity [14]: Active
- IC50 [2]: 8 µM
- Activity [15]: Active
- Activity [16]: Dose-dependent effect
- IC50 [3]: 9.4 µM
- Activity [17]: Active
- Activity [18]: Active
- TGI [19]: Active
- fold change (FC) [20]: 3
- IC50 [4]: 9 µM
- Activity [21]: Dose-dependent effect
- Activity [22]: Active
- Activity [23]: 0.5 mg/dL
- Activity [24]: 132.65 IU/L
- Activity [25]: 10%
- Activity [26]: Active
- Activity [27]: Active
- Activity [28]: Non-toxic
- Activity [29]: 39 mg/dL
- TGI [30]: Active
- IC50 [5]: 10 µM
- IC50 [6]: 10 µM
- Activity [31]: Active

SMILES: COc1ccc(C(=O)c2cc(C)ccc2OCC(=O)NNC(=O)c2cc3ccccc3oc2=O)cc1
- IC50 [1]: 43.4 µM
- IC50 [2]: 38.4 µM
- IC50 [3]: 41.2 µM
- IC50 [4]: 41.2 µM
- IC50 [5]: 43.5 µM
- IC50 [6]: 42 µM

SMILES: Cc1ccc(C(=O)c2cc(C)ccc2OCC(=O)NNC(=O)c2cc3ccccc3oc2=O)cc1
- IC50 [1]: 87.2 µM
- IC50 [2]: 78.1 µM
- IC50 [3]: 81.4 µM
- IC50 [4]: 82.6 µM
- IC50 [5]: 87.3 µM
- IC50 [6]: 84.6 µM

SMILES: Cc1ccc(OCC(=O)NNC(=O)c2cc3ccccc3oc2=O)c(C(=O)c2ccccc2)c1
- IC50 [1]: 87 µM
- IC50 [2]: 78.4 µM
- IC50 [3]: 81.1 µM
- IC50 [4]: 86.5 µM
- IC50 [5]: 89.1 µM
- IC50 [6]: 86.4 µM
